Data reported in PubChem BioAssay (NCI).
Values joined by “and” are separate entries in the source; they are usually repeats but may differ in a detail not shown here. Identical values can stand only once.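 These data come from cells grown in 96-well plates and exposed to compound for 48 hours at five concentrations. The concentration for 50% growth inhibition is given as GI50. TGI marks complete inhibition of growth.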

How the values were obtained:
Assay in all cases: growth of human tumour cells (NCI), 48 h
[1] = system: A498 renal
[2] = system: OVCAR-4 ovarian
[3] = system: SR leukemia
[4] = system: BT-549 breast
[5] = system: NCI-H226 lung
[6] = system: UACC-62 melanoma
[7] = system: HT29 colon
[8] = system: RPMI-8226 leukemia
[9] = system: MDA-MB-435
[10] = system: SNB-19 CNS

Compound	TGI [1] [µM]	TGI [2] [µM]	TGI [3] [µM]	TGI [4] [µM]	TGI [5] [µM]	TGI [6] [µM]	TGI [7] [µM]	TGI [8] [µM]	TGI [9] [µM]	TGI [10] [µM]	GI50 [1]	GI50 [2]	GI50 [10]
COc1ccc2[nH]c3cc4c(=O)c5cc(OC)ccc5[nH]c4cc3c(=O)c2c1	> 100	> 100	> 100	> 100	> 100	> 100	> 100	> 100	> 100	> 100	–	–	–
Cc1ccc(S(=O)(=O)N(CC(O)COc2ccccc2)c2c(F)c(F)cc(F)c2F)cc1 (stereo not given)	39	52	28.5	48.7	57.9	37.5	33.4	41.4	36.5	82.1	–	–	–
Cc1nc2cn3c(c2c(=O)[nH]1)CCCCC3	> 100	> 100	> 100	> 100	> 100	> 100	> 100	> 100	> 100	> 100	–	–	–
OC1(c2ccccc2)CC2CCC(C1)N2CCCC(O)(c1ccccc1)c1ccccc1 (stereo not given)	29.1	> 100	> 100	26.3	29	28.5	9.64	6.4	24.8	42.9	–	–	–
COc1ccc(/C=C2/N=C(N/N=C\C(O)C(O)C(O)CO)NC2=O)cc1 (stereo not given)	> 100	> 100	> 100	> 100	> 100	–	> 100	> 100	> 100	> 100	> 100 µM and 32.6 µM	40.9 µM and > 100 µM	> 100 µM and 48.4 µM
NC(Cc1ccc(O)cn1)C(=O)NC(C(=O)O)c1ccccc1 (stereo not given)	> 100	> 100	> 100	> 100	> 100	–	> 100	> 100	> 100	> 100	–	–	–
Nc1nc(Cl)cc(NCC2(CO)CCCCC2)n1	> 100	> 100	> 100	> 100	> 100	> 100	> 100	> 100	> 100	> 100	–	–	–
COc1ccccc1C1C2=C(COC2=O)Oc2cc3c(cc21)OCO3 (stereo not given)	15.4	> 100	> 100	> 100	> 100	> 100	8.53	> 59.2	0.947	72.3	–	–	–
CN(C(=O)[C@H](NC(=O)OCc1ccccc1)c1ccccc1)C1CCCCC1N1CCCC1 (stereo not given in full)	> 100	> 100	87.6	> 100	78	> 100	> 100	> 100	> 100	> 100	–	–	–
C=CCn1c(-c2cc(C(C)(C)C)c(O)c(C(C)(C)C)c2)cs/c1=N\C(P(=O)(O)O)P(=O)(O)O	> 100	> 100	> 100	> 100	> 100	–	> 100	> 100	> 100	> 100	–	–	–
c1ccc(-c2cnc(SC(c3ccccc3)c3ccccc3)[nH]2)cc1	> 100	> 100	64.3	> 100	67.3	42.1	> 100	48.5	> 100	> 100	–	–	–
COC(=O)C1OC(O[C@H]2CC[C@]3(C)[C@H]4CC=C5[C@@H]6CC(C)(C)CC[C@]6(C(=O)OC)CC[C@@]5(C)[C@]4(C)CC[C@H]3C2(C)C)C(O)C(O)C1O (stereo not given in full)	34.3	30.6	14.4	32.1	37	31	22.9	51.7	30	31.1	–	–	–
O=C1c2ccccc2N=C(c2cc3c(cc2Cl)Sc2nccn2S3(=O)=O)OS(=O)(=O)N1c1ccccc1	> 100	> 100	26.2	61.1	> 100	50.1	61	46.4	51.4	> 100	–	–	–
O=S(=O)(O)c1ccc2c(N=Nc3cccc4ccccc34)c(O)ccc2c1	> 100	> 100	> 100	> 100	> 100	> 100	> 100	> 100	> 100	> 100	–	–	–
Cc1cc(C)cc(Nc2nnc3n2S(=O)(=O)c2cc(C)c(Cl)cc2S3)c1	29.6	> 100	13.9	70.9	30.5	34.9	> 100	42	91.2	49.3	–	–	–
COc1ccc2c(c1)CC[C@@H]1[C@@H]2CC[C@]2(C)/C(=N/OCCN3CCCC3)CC[C@@H]12	9.9	24.3	4.49	22.4	5.26	3.53	3.96	3.65	2.43	28.1	–	–	–
